# Data from patent publication US20240053332A1, “Methods and Compositions Utilising Vitamin B12 Binding” (priority 2020, published 2024).
# Tests used:
# [1] = tested on: Bacteroides thetaiotaomicron (Bt); assay: growth of Bt dependent upon vitB12; format: cell-based
# Description: Less growth is seen with serial 10-fold dilutions of B12-bound BEVs. By contrast and as controls, no growth is seen by adding 1 mM vitB12 directly to the cultures or by adding BEVs alone with no bound vitB12.
# BtuG2 = assay: affinity of BtuG2 protein for B12; format: binding
# Description: We believe that it is possible to exploit this tight interaction in the same way as the Biotin-avidin system. We have shown that it is possible to attach protein-linkers to vitamin B12, allow vitamin B12 to become attached to proteins that have the necessary exposed amino acid side chains. […] The attachment is specific and strong. • (b) With Mologic, we have shown that a B12-maleimide will bind to a lactate dehydrogenase antibody, allowing the complex to be used in an immunoassay. This provides the proof of principal that the B12-B12 binding protein system can be exploited in therapeutic assays and diagnostics in the same way as biotin-avidin.
substance,measurement,setting,value
cobalamin [vitB12],growth of Bt in vitB12-deficient media,"[1]; FIG. 1 left panel, 1 mM vitB12, bound to BEVs or added directly to the cultures",no growth
same,vitB12 concentration giving maximal growth of Bt,"[1]; FIG. 1 right panel, no growth in its absence (0 nM)",100 nM
same,affinity of BtuG2 for B12,BtuG2,femtomolar region
